# According to patent publication US20230381205A1, “COMPOSITIONS AND METHODS FOR TREATING NEURONAL DISORDERS WITH CANNABINOIDS” (INMED PHARMACEUTICALS INC., priority 2020, published 2023):
# Key:
# [1] = tested on: differentiated SH-SY5Y human neuronal cells; assay: MTT assay: neuroprotection from Staurosporin (STSR) induced cytotoxicity; type: cell-based; details: for neuroprotection against STSR-induced cytotoxicity: 0.5 μM, 1.5 μM and 5 μM with STSR 75 nM, 72 hrs; for neuroprotection against STSR-induced cytotoxicity / Cell Death (%) vs STSR at 75 nM, significance: FIG. 3; for Cell Death (%) vs STSR at 75 nM, significance: 5 μM with STSR 75 nM, compared to STSR-alone, One-Way ANOVA
# Procedure: (§1) Cell Culture and Differentiation: The SH-SY5Y human neuronal cell line was derived from neuroblastoma established from a metastatic bone tumor (patient with neuroblastoma). The cells were maintained in DMEM:F12 culture medium supplemented with 10% FBS and 1% Antibiotic-Antimycotic penicillin/streptomycin (growth medium) at 37° C. in a humidified atmosphere of 5% CO2. To induce neuronal differentiation of SH-SY5Y cells, culture media was replaced by a growth medium containing Retinoic Acid (RA) for 4-5 days at 37° C. in a humidified atmosphere of 5% CO2.
# (§2) Compounds and Dosing Formulations: Selected cannabinoids: CBD, CBDA, CBC, CBG, CBGA, CBN, CBND and Δ^9-THC were procured from Cayman Chemicals and TRC. Ethanol (100%) was used as the solvent to prepare 1 and 10 mM stock solutions. Treatment concentrations for CBGA were prepared at 0.5 μM, 1.5 μM, 5 μM, 10 μM, 15 μM, 20 μM. Treatment concentrations for CBD, CBDA, CBC, CBN, CBND and Δ^9-THC were prepared at 0.5, 1.5, 5 and for CBG at 0.5 μM, 1.5 μM, 5 μM, 10 μM, 15 μM. Treatments were prepared directly in the control medium (DMEM:F12+5% FBS+1% Antibiotic-Antimycotic) by using appropriate stock solutions.
# (§3) Evaluation of Cytotoxicity and Neuroprotection: Evaluation of cannabinoids neuroprotection and cytotoxicity on differentiated SH-SY5Y human neuronal cells was carried out by MTT (3-(4,5-dimethylthiazol-2-yl)-2,5-diphenyltetrazolium bromide) assay. Initially, cannabinoid cytotoxicity and neuroprotection were evaluated in a primary screen assay without the presence of cytotoxicity inducing insult agents. […] The Retinoic Acid (RA) differentiated SH-SY5Y neuronal cells were seeded onto 96-well plates (10,000 cells/well) in DMEM:F12 complete medium. Cells were differentiated for 4-5 days in the presence of RA.
# (§4) MTT Assay: For the MTT assay, differentiated SH-SY5Y neuronal cells were treated with cannabinoids at various concentrations for 72 hrs in the presence of STSR at 75 nM, 100 nM, 150 nM and 200 nM or for 24 hrs in the presence of […] at 5 μM, respectively and processed to determine cytotoxicity. Briefly, 5 mg/mL of methylthiazolyldiphenyl-tetrazolium bromide (Sigma-Aldrich) stock solution was prepared in PBS. Following treatment of SH-SY5Y neuronal cells with cannabinoids for 72 hrs, the cells were incubated with 20 μL of MTT stock solution in 200 μL DMEM for 2 hrs at 37° C. Following subsequent washes with PBS, 200 μL of isopropanol was added to each well. The resulting change in color from dissolving formazan salt was immediately quantified using a spectrophotometer (BMG Labtech) at a wavelength of 570 nm. […] The results are illustrated in FIGS. 1-7.
# [2] = tested on: differentiated SH-SY5Y human neuronal cells; assay: MTT assay: cytotoxicity of the substance alone (primary screen, no added insult); type: cell-based; details: for toxicity in primary screen / Cell Death (%) vs Vehicle Control: FIG. 1; for Cell Death (%) vs Vehicle Control: 15 μM, pre-screen
# Procedure: as §1, §2, §3, §4
# [3] = tested on: differentiated SH-SY5Y human neuronal cells; assay: MTT assay: neuroprotection from Aβ1-42 induced cytotoxicity; type: cell-based
# Procedure: as §1, §2, §3, §4
# CB1R = assay: Changes in CB1 receptor expression and translocation; type: cell-based; details: CBGA 5 μM, 10 μM, dose-dependent; FIG. 11
# Excerpt: FIG. 11 Changes in receptor expression.
# [4] = tested on: differentiated SH-SY5Y cells; assay: Immunocytochemistry of TuJ1 and neuronal morphology; type: cell-based, human; details: 5 μM, FIG. 14
# Procedure: (§5) FIG. 14 Morphological characterization of CBGA, THC and CBN mediated changes in differentiated SH-SY5Y cells. SH-SY5Y cells were differentiated with RA (10 μM) for 5 days as indicated. (A) Representative confocal photomicrographs showing changes in the cellular distribution of Tuj1 in RA induced differentiated SH-SY5Y cells following treatment with CBGA, THC and CBN. (B) Histogram showing the effect of CBGA, CBN, THC on neurite length.
# [5] = tested on: differentiated SH-SY5Y cells; assay: Neurite length / neuritogenesis in differentiated SH-SY5Y cells; type: cell-based, human; details: 24 hours post treatment, FIG. 14 (B)
# Procedure: FIG. 12 provides representative photomicrographs illustrating CBGA mediated changes in neurite elongation and branching in differentiated SH-SY5Y cells in a dose dependent manner. […] FIG. 12 also provides a histogram showing gradual changes in neurite length following treatment with CBGA.
# as §5
# BAX = assay: Western blot of BAX (pro-apoptotic marker); type: cell-based, human; details: Aβ1-42 (5 μM) alone, FIG. 9
# Procedure: (§6) For Western blot analysis, control and the treated cells were harvested and lysed in cold lysis buffer (150 mM NaCl, 50 mM Tris-HCl, 1% Triton X-100, 0.1% SDS, 0.5% Sodium deoxycholate, and 1% protease-phosphatase inhibitor mixture). The supernatants were collected and protein concentrations were determined using Bio-Rad protein assay (Bio-Rad Laboratories). Whole cell lysates (10 μg) were subjected to 10% SDS-polyacrylamide electrophoresis and transferred to nitrocellulose membrane. The membranes were blocked with 5% skim milk in TBS-T (Tris-buffered saline with 0.05% Tween-20) for 1 h at RT and blotted overnight in the presence of monoclonal anti-mouse MAP2 (1:1000, Sigma, cat. no. M1406), Tau (1:1000, Invitrogen, cat. no. AHB0042), TUJI (1:5000, BioLegend, cat. no. MMS-435P), BAX (1:1000, Cell signaling, cat. no. 2772) and rabbit polyclonal total and phosphorylated BCL (1:1000, Cell signaling, antibodies #2827 and 2870). The membranes were washed and incubated for 1 h in RT with either horseradish peroxidase (HRP)-conjugated goat anti-mouse (1:2000) or goat anti-rabbit antibodies (1:2000) (Jackson Lab). The membranes were washed and developed using chemiluminescence detection kit (Millipore, Billerica, MA, USA) on Alpha Innotech FluorChem 8800. β-Actin or Vinculin was used as a loading control. […]
# BCL2 = assay: Western blot of phosphorylated BCL2 (anti-apoptotic marker); type: cell-based, human; details: Aβ1-42 insult alone, FIG. 10
# Procedure: as §6
# [6] = tested on: differentiated SH-SY5Y cells; assay: Confocal immunofluorescence of MAP2 and neurite morphology; type: cell-based, human; details: Aβ1-42 at 5 μM alone, FIG. 16
# Procedure: SH-SY5Y cells were differentiated with RA (10 μM) for 5 days as indicated.
# Accordingly, the effect of CBGA on the expression of MAP-2 was tested.
# [7] = tested on: differentiated SH SY5Y cells treated with Aβ1-42; assay: Receptor antagonist study: reversal of CBGA mediated protection from Aβ toxicity; type: cell-based, human; details: CB2 antagonist at 1.5 μM (lowest concentration tested), with CBGA + Aβ1-42, FIG. 8
# Procedure: FIG. 8 illustrates the effect of a CB2 antagonist has on the reversal of CBGA mediated protection of Aβ toxicity. The CB2 antagonist […] has a more prominent effect on the reversal of CBGA mediated protection. […] CB2 antagonist has significant effect on the reversal of CBGA mediated protection at lower concentration. p<0.0001 for Aβ compared to vehicle control. p<0.0001 for all groups compared to CBGA ([…])+Aβ.
Compound,neuroprotection against STSR-induced cytotoxicity [1],"Cell Death (%) vs STSR at 75 nM, significance [1]",toxicity in primary screen ([2]; 5 μM to 15 μM),Cell Death (%) vs Vehicle Control [2],toxicity in primary screen ([2]; about 0.5 μM to 1.5 μM),other results
"C=C(C)[C@@H]1CCC(C)=C[C@H]1c1c(O)cc(CCCCC)cc1O [CBD, cannabidiol]",did not protect,statistically significant cytotoxicity,high levels of toxicity,promote cell death,high levels of toxicity,–
"CCCCCc1cc(O)c(C/C=C(\C)CCC=C(C)C)c(O)c1 [CBG, cannabigerol]",–,–,high levels of toxicity,promote cell death,–,"protection from STSR induced cytotoxicity ([1]; 5 μM, 10 μM and 15 μM with STSR 75 nM, FIG. 6): did not protect; Cell Death (%) vs STSR, significance ([1]; 15 μM with STSR 75 nM, p=0.0002, FIG. 6): statistically significant cytotoxicity; protection from Aβ1-42 induced insult ([3]; 1.5 μM, 5 μM and 10 μM with Aβ1-42 5 μM, FIG. 7): did not protect; cytotoxicity with Aβ1-42 ([3]; 10 μM with Aβ1-42 5 μM, p<0.0001, FIG. 7): significant cytotoxicity"
"C=C(C)[C@@H]1CCC(C)=C[C@H]1c1c(O)cc(CCCCC)c(C(=O)O)c1O [CBDA, cannabidiolic acid]",–,–,high levels of toxicity,promote cell death,high levels of toxicity,–
"CCCCCc1cc(O)c2c(c1)OC(C)(C)[C@@H]1CCC(C)=C[C@@H]21 [Δ9-THC, Δ^9-tetrahydrocannabinol]",–,–,high levels of toxicity,promote cell death,high levels of toxicity,"CB1R expression and translocation (CB1R): did not alter the expression of CB1R; neuronal morphology and neurite outgrowth, TuJ1 staining [4]: disrupted neuronal morphology and neurite outgrowth; neurite length [5]: significantly decreased the neurite length"
"Aβ1-42: Amyloid-beta (Aβ1-42) peptide, insult-inducing cytotoxic agent",–,–,–,–,–,"BAX expression (BAX): induced upregulation; BCL2 expression (BCL2): downregulation; cytotoxicity ([2]; Aβ1-42 insult alone at 5 μM, 24 hrs, FIG. 7): 23-52%; neurite morphology [6]: damaged neurite outgrowth"
"CCCCCc1cc(O)c2c(c1)OC(C)(CCC=C(C)C)C=C2 (stereo not drawn) [CBC, cannabichromene]",–,–,high levels of toxicity,promote cell death,high levels of toxicity,–
"CCCCCc1cc(O)c2c(c1)OC(C)(C)c1ccc(C)cc1-2 [CBN, cannabinol]",did not protect,statistically significant cytotoxicity,high levels of toxicity,promote cell death,–,"CB1R expression and translocation (CB1R): did not alter the expression of CB1R; neuronal morphology and neurite outgrowth, TuJ1 staining [4]: loss of neurite outgrowth and elongation; neurite length [5]: significantly decreased the neurite length"
"Cc1ccc(Cn2nc(C(=O)N[C@@H]3C(C)(C)[C@@H]4CC[C@@]3(C)C4)cc2-c2ccc(Cl)c(C)c2)cc1 [SRI 14528, 5-(4-chloro-3-methylphenyl)-1-[(4-methylphenyl)methyl]-N-[(1S,2S,4R)-1,3,3-trimethylbicyclo[2.2.1]heptan-2-yl]-1H-pyrazole-3-carboxamide]",–,–,–,–,–,reversal of CBGA mediated neuroprotection [7]: completely reversed
C=C(C)c1ccc(C)cc1-c1c(O)cc(CCCCC)cc1O [CBND],did not protect,statistically significant cytotoxicity,high levels of toxicity,promote cell death,–,–
"CN[C@@H]1C[C@H]2O[C@@](C)([C@@H]1OC)n1c3ccccc3c3c4c(c5c6ccccc6n2c5c31)C(=O)NC4 [STSR, Staurosporin]",–,–,–,–,–,"cell death ([2]; STSR 75 nM, 72 hrs, vs vehicle control, FIG. 2): ~34%; cell death ([2]; STSR 200 nM, 72 hrs, vs vehicle control, FIG. 2): ~66%; cell death ([2]; STSR-insult alone at 75 nM, FIG. 5): ~48%"
